Measurements from patent US20180200257A1, “METHODS FOR THE TREATMENT OF INFLAMMATORY DISORDERS” (Galapagos NV, priority 2015, published 2018).

Test system: subjects with moderately to severely active RA who have an inadequate response to methotrexate (MTX)
Assay: Study 1 (add-on to MTX) - DAS28(CRP) scores
Assay type: in vivo, human
Design: key to DAS28(CRP) mean CFB (LOCF): change from baseline in DAS28(CRP) score (joints, CRP, 0-100 VAS)
Experimental: Double-blind, placebo-controlled add on study in subjects with moderately to severely active RA who have an inadequate response to methotrexate (MTX) (oral or parenteral).
595 subjects randomized to one of 6 dose regimens of Compound 1 (dosed as [Compound 1:HCl:3H2O]) (3 dose levels administered either once or twice daily) or placebo on top of each subject's stable dose of MTX.
Compound 1 (dosed as [Compound 1:HCl:3H2O]) is dosed for twelve weeks once daily (q.d.) (50 mg, 100 mg or 200 mg) or twice daily (b.i.d.) (25 mg, 50 mg or 100 mg); or placebo.
At Week 12, the subjects on placebo who have not achieved 20% improvement in swollen joint count (SJC66) and tender joint count (TJC68) are re-randomized automatically to receive Compound 1 (dosed as a [Compound 1:HCl:3H2O]) either at 100 mg q.d. or 50 mg b.i.d. doses in a blinded fashion; subjects on 50 mg q.d. who have not achieved 20% improvement in SJC66 and TJC68 will be assigned to 100 mg q.d. and subjects on 25 mg b.i.d. that have not achieved a 20% improvement in SJC66 and TJC68 will be assigned to 50 mg b.i.d. Subjects who switch treatment at week 12 are handled as if they discontinued at week 12 for the purpose of statistical analysis, whereas subjects in the other groups will maintain their randomized treatment until Week 24.
The (DAS28(CRP)) is a system developed and validated by the European League Against Rheumatism (EULAR) to measure the progress and improvement of rheumatoid arthritis and has been extensively validated (Wells et al., 2008). The DAS28(CRP) scoring includes a 28 tender and swollen joint count, CRP measurement from blood analysis, and a general health assessment on a visual analog scale (Fransen et al., 2003).
DAS28(CRP) values range from 2.0 to 10.0, and more particularly reflect the following status: • Remission: DAS28(CRP) ≤2.6 • Low Disease activity: 2.6 <DAS28(CRP) ≤3.2 • Moderate Disease Activity: 3.2 <DAS28(CRP) ≤5.1 • High Disease Activity: DAS28(CRP) >5.1
In practice, the DAS28(CRP) measurement involves the evaluation 28 different joints including in the measurement (proximal interphalangeal joints (10 joints), metacarpophalangeal joints (10), wrists (2), elbows (2), shoulders (2), and knees (2)). When looking at these joints, both the number of joints with tenderness upon touching and swelling are counted.
Secondly, C-reactive protein level is measured.
Finally, the patient makes a subjective assessment of disease activity during the preceding 7 days on a scale between 0 and 100, where 0 is “no activity” and 100 is “highest activity possible”.
The DAS28(CRP) score is then calculated as follows:
Firstly, the patient is asked to make a vertical mark on a 100 mm Visual Analog Scale (VAS) corresponding to their general health or global disease activity on a touch screen to measure the VAS value, which is used in the formula below.
Secondly, a swollen and tender joint examination is then performed on the patient. The swollen and tender joints are recorded. From this examination are obtained the total amount of swollen joints (SJC) and the total amount of tender joints (TJC), which are used in the formula below.
Thirdly, C-reactive protein (CRP) levels are measured.
Finally, the values obtained above (VAS, TJC28, SJC28, and CRP) are computed into the following Formula to obtain the DAS28(CRP) score.
DAS28(CRP)=0.56*√{square root over (TJC28)}+0.28√{square root over (SJC28)}+[…] ln(CRP+1)+0.014*VAS
The improvement (decreases) in the DAS28(CRP) scores for each patient group at weeks 1, 2, 4, 8 and 12 is shown in Table LXXXVII and Table LXXXVIII below, together with the Hommel-corrected p-value for the pairwise comparisons of each group with placebo.
The number of subjects (N) provided in each groups corresponds to the number of subjects starting the study in each group, and the DAS28 (CRP) data reported below corresponds to the responding subjects continuing for the entire 24 weeks on their initial treatment course.

SMILES: O=C(Nc1nc2cccc(-c3ccc(CN4CCS(=O)(=O)CC4)cc3)n2n1)C1CC1 [Compound 1, cyclopropanecarboxylic acid {5-[4-(1,1-dioxo-thiomorpholin-4-ylmethyl)-phenyl]-[1,2,4]triazolo[1,5-a]pyridin-2-yl}-amide]
- DAS28(CRP) mean CFB (LOCF) (50 mg q.d., week 1, 12 weeks results): −0.65
- DAS28(CRP) mean CFB (LOCF) (50 mg q.d., week 1, 24 weeks results): −0.65
- DAS28(CRP) mean CFB (LOCF) (50 mg q.d., week 2, 12 weeks results): −0.94
- DAS28(CRP) mean CFB (LOCF) (50 mg q.d., week 2, 24 weeks results): −0.94
- DAS28(CRP) mean CFB (LOCF) (50 mg q.d., week 4, 12 weeks results): −1.28
- DAS28(CRP) mean CFB (LOCF) (50 mg q.d., week 4, 24 weeks results): −1.28
- DAS28(CRP) mean CFB (LOCF) (50 mg q.d., week 12, 12 weeks results): −1.75
- DAS28(CRP) mean CFB (LOCF) (50 mg q.d., week 12, 24 weeks results): −1.75
- DAS28(CRP) mean CFB (LOCF) (50 mg q.d., week 16, 24 weeks results): −1.91
- DAS28(CRP) mean CFB (LOCF) (50 mg q.d., week 20, 24 weeks results): −1.99
- DAS28(CRP) mean CFB (LOCF) (50 mg q.d., week 24, 24 weeks results): −1.98
- % patients reaching low disease activity and/or remission at week 12 (LOCF) (50 mg q.d., 12 weeks results): 24%
- % patients reaching low disease activity at week 12 (LOCF) (50 mg q.d., 12 weeks results): 12%
- % patients reaching remission at week 12 (LOCF) (50 mg q.d., 12 weeks results): 12%
- % patients reaching low disease activity and/or remission at week 24 (LOCF) (50 mg q.d., 24 weeks results): 33%
- % patients reaching low disease activity at week 24 (LOCF) (50 mg q.d., 24 weeks results): 12%
- % patients reaching remission at week 24 (LOCF) (50 mg q.d., 24 weeks results): 21%
- DAS28(CRP) mean CFB (LOCF) (50 mg q.d., week 8, 12 weeks results): −1.66
- DAS28(CRP) mean CFB (LOCF) (50 mg q.d., week 8, 24 weeks results): −1.66
- DAS28(CRP) mean CFB (LOCF) (100 mg q.d., week 1, 12 weeks results): −1.01
- DAS28(CRP) mean CFB (LOCF) (100 mg q.d., week 1, 24 weeks results): −1.00
- DAS28(CRP) mean CFB (LOCF) (100 mg q.d., week 2, 12 weeks results): −1.50
- DAS28(CRP) mean CFB (LOCF) (100 mg q.d., week 2, 24 weeks results): −1.51
- DAS28(CRP) mean CFB (LOCF) (100 mg q.d., week 4, 12 weeks results): −1.88
- DAS28(CRP) mean CFB (LOCF) (100 mg q.d., week 4, 24 weeks results): −1.89
- DAS28(CRP) mean CFB (LOCF) (100 mg q.d., week 8, 24 weeks results): −2.13
- DAS28(CRP) mean CFB (LOCF) (100 mg q.d., week 12, 12 weeks results): −2.21
- DAS28(CRP) mean CFB (LOCF) (100 mg q.d., week 12, 24 weeks results): −2.23
- DAS28(CRP) mean CFB (LOCF) (100 mg q.d., week 16, 24 weeks results): −2.51
- DAS28(CRP) mean CFB (LOCF) (100 mg q.d., week 20, 24 weeks results): −2.65
- DAS28(CRP) mean CFB (LOCF) (100 mg q.d., week 24, 24 weeks results): −2.70
- % patients reaching low disease activity and/or remission at week 12 (LOCF) (100 mg q.d., 12 weeks results): 34%
- % patients reaching low disease activity at week 12 (LOCF) (100 mg q.d., 12 weeks results): 13%
- % patients reaching remission at week 12 (LOCF) (100 mg q.d., 12 weeks results): 21%
- % patients reaching low disease activity and/or remission at week 24 (LOCF) (100 mg q.d., 24 weeks results): 51%
- % patients reaching low disease activity at week 24 (LOCF) (100 mg q.d., 24 weeks results): 14%
- % patients reaching remission at week 24 (LOCF) (100 mg q.d., 24 weeks results): 36%
- DAS28(CRP) mean CFB (LOCF) (100 mg q.d., week 8, 12 weeks results): −2.12
- DAS28(CRP) mean CFB (LOCF) (200 mg q.d., week 1, 12 weeks results): −1.17
- DAS28(CRP) mean CFB (LOCF) (200 mg q.d., week 1, 24 weeks results): −1.17
- DAS28(CRP) mean CFB (LOCF) (200 mg q.d., week 2, 12 weeks results): −1.52
- DAS28(CRP) mean CFB (LOCF) (200 mg q.d., week 2, 24 weeks results): −1.52
- DAS28(CRP) mean CFB (LOCF) (200 mg q.d., week 4, 12 weeks results): −1.92
- DAS28(CRP) mean CFB (LOCF) (200 mg q.d., week 4, 24 weeks results): −1.92
- DAS28(CRP) mean CFB (LOCF) (200 mg q.d., week 8, 24 weeks results): −2.31
- DAS28(CRP) mean CFB (LOCF) (200 mg q.d., week 12, 12 weeks results): −2.49
- DAS28(CRP) mean CFB (LOCF) (200 mg q.d., week 12, 24 weeks results): −2.47
- DAS28(CRP) mean CFB (LOCF) (200 mg q.d., week 16, 24 weeks results): −2.70
- DAS28(CRP) mean CFB (LOCF) (200 mg q.d., week 20, 24 weeks results): −2.86
- DAS28(CRP) mean CFB (LOCF) (200 mg q.d., week 24, 24 weeks results): −2.80
- % patients reaching low disease activity and/or remission at week 12 (LOCF) (200 mg q.d., 12 weeks results): 37%
- % patients reaching low disease activity at week 12 (LOCF) (200 mg q.d., 12 weeks results): 15%
- % patients reaching remission at week 12 (LOCF) (200 mg q.d., 12 weeks results): 22%
- % patients reaching low disease activity and/or remission at week 24 (LOCF) (200 mg q.d., 24 weeks results): 51%
- % patients reaching low disease activity at week 24 (LOCF) (200 mg q.d., 24 weeks results): 26%
- % patients reaching remission at week 24 (LOCF) (200 mg q.d., 24 weeks results): 26%
- DAS28(CRP) mean CFB (LOCF) (200 mg q.d., week 8, 12 weeks results): −2.30
